SMILES	melting point [°C]
CCCCNC1=NS(=O)(=O)c2ccc(Cl)cc2N1	267 to 269
CC(C)(C)OC(=O)N(C(=O)OC(C)(C)C)c1cnc(-c2cncc(F)c2)s1	94 to 96
CC(C)(CO)Oc1ccc(CNc2ccc(Cl)cc2)cc1	84 to 91
COC(=O)CC[C@H](NC(=O)c1ccc(N(C)CCc2c(NC(C)=O)nc(NC(C)=O)[nH]c2=O)cc1)C(=O)OC	168 to 175
Cc1ccc(C(=O)NC(NC(=NC#N)Nc2ccccc2)C(Cl)(Cl)Cl)cc1 (stereo unspecified)	197 to 199
COC(=O)c1ccc(C(=O)NCCCCNC(=O)c2ccc(C(=O)OC)cc2)cc1	260 to 261
CS(=O)(=O)c1ccc(-c2c(-c3ccc(F)cc3)c(OCC(=O)c3ccccc3)nn2CC(=O)c2ccccc2)cc1	151 to 152
CCCCCCCCCCCCCCCCCCOC(=O)COc1ccc(C2C(=O)Oc3c(C)cc(C)cc32)cc1 (stereo unspecified)	57 to 59
CC(C)CCCC(C)C1CCC2C3CC=C4CC(OCCCCCCI)CCC4(C)C3CCC12C (stereo unspecified)	104
CC(C)(O)c1ccc(CNC(=O)c2cccnc2Oc2cc(F)cc(F)c2)cc1	68 to 70
CCOC(=O)Cc1nc(-c2cc(C(C)(C)C)c(O)c(C(C)(C)C)c2)oc1C	103 to 105
CS(=O)(=O)c1ccc(-c2cc(-c3c(-c4ccccn4)nc4ccccn34)ccn2)cc1	242 to 244
Cc1ccc(C2CC(C(N)=O)=NN2c2ccc(S(N)(=O)=O)cc2)cc1 (stereo unspecified)	210 to 215
C[C@@H]1N=C(c2ccccc2)c2cc(C#CCCCC(=O)NO)ccc2N(C)C1=O	101 to 103
CC(C)(C)OC(=O)N1CCC(CC(=O)Nc2cccc(-c3ccnc4c(C(=O)c5cccs5)cnn34)c2)CC1	173 to 175
CCC(=O)NC(=O)C(CC)(OC(=O)CC)C(=O)NC(=O)CC	90
O=C([C@H]1CC[C@H](Nc2ncc3ncnc(Nc4ccc(F)c(Cl)c4)c3n2)CC1)N1CCCC1	206 to 209
N[C@@H](Cc1ccc(C(F)(F)F)c(F)c1)[C@H](O)c1ccc(F)cc1 (racemic)	86 to 87
CC1(CF)C(=O)N(c2ccc(C#N)c(C(F)(F)F)c2)C(=O)N1CC#N (stereo unspecified)	175
C=C=Cn1c(=O)sc2cc(F)c(-n3c(=O)cc(C)n(C)c3=O)cc21	> 250

SMILES	melting point [°C]
O=c1[nH]c2ncc(-c3ccnc(O)c3)nc2n1CC1CCCCC1	311 to 313
O=C(O)CCSc1nnc(S)s1	105 to 108
COc1ccc(Cl)cc1C(=O)NCCc1ccc(-c2ccc(OC(C)(C)CO)cc2)cc1	115
CN(C)c1ccc(O)c2c1CC1CC3C(N(C)C)C(O)=C(C(N)=O)C(=O)C3(O)C(O)=C1C2=O (stereo unspecified)	113
CC(C)=CCn1ncc(-c2ccc(S(C)(=O)=O)cc2)c(-c2ccc(F)cc2)c1=O	169 to 172
OC(CNC1CC1)c1cccc(Cl)c1 (stereo unspecified)	71.3 to 73.2
Cc1ccc2c(C3CCN(CC#N)CC3)cn(-c3ccc(F)cc3)c2c1	101 to 103
CC(=O)NCCCCCC(=O)Nc1ncccc1C(=O)c1ccc(Cl)cc1	117 to 119
COc1ccc(C(=O)Nc2ccccc2)cc1N(S(=O)(=O)c1cc(Cl)cc(Cl)c1)S(=O)(=O)c1cc(Cl)cc(Cl)c1	228 to 231
O=c1n(C(c2ccccc2)(c2ccccc2)c2ccccc2)nc2ccc(Cl)nn12	246 to 247
Cc1c(C(=O)c2cccc(C(F)(F)F)c2F)c2ccc(Cl)c(Cl)c2n1CCCNS(C)(=O)=O	181
CNc1c(Cl)cc2c3c(cccc13)C(=O)N(C1CCN(C)CC1)C2=O	298 to 302
CCCCCCCCCCCCCCCC(=O)OCC(CO)OC(=O)CCCCCCCCCCCCCCC (stereo unspecified)	67 to 68
Cn1c(C(F)(F)F)ccc(-c2ccc(F)cc2F)c1=O	123 to 124
COc1ccc(N2CCN(C)CC2)c2c1CCC(C(=O)Nc1ccc(N3CCOCC3)cc1)C2 (stereo unspecified)	230 to 232
CNC(=C[N+](=O)[O-])NCCCSc1nc(C)co1	92 to 93
O=C(Nc1ccc(-n2nc(C3CC3)cc2C2CC2)cc1)c1ccncc1F	135 to 139
CC[C@H](COC)n1cc(Cl)nc(N2CCc3cc(OC)cc(C#N)c32)c1=O	141 to 142
c1cc2c3c(cccc3c1)C(NCCCCCCCn1ccnc1)=N2	48 to 50
CCCn1c(=O)c2[nH]c(/C=C/c3ccc(OCOC)c(OC)c3)nc2n(CCC)c1=O	227

SMILES	melting point [°C]
COC1(c2nc(Br)c(Sc3ccc(/C(C)=N/O)cc3)s2)CCOCC1	130
CCCC(CC(CC)SC)CC1OC(n2cnc3c(N)ncnc32)C(O)C1O (stereo unspecified)	78 to 80
O=C1N[C@H](Cc2ccc(C(F)(F)F)cc2)[C@H](c2ccc(F)c(F)c2)O1 (racemic)	157 to 158
[O-][N+]1=C(c2ccccc2)c2cc(C(F)(F)F)ccc2-n2c(CBr)nnc2C1	185 to 210
Cc1nn(C(=O)NC(C)(C)C)c(=O)n1N	132
COC(=O)/C=C/C(=O)OCC(=O)N1CCOCC1	124 to 126
COc1ccccc1-n1c(-c2sc(Nc3ccccc3)nc2C)nc2ccccc2c1=O	169 to 170
Cc1cc(-c2ccc(S(C)(=O)=O)cc2)n(-c2ccc(F)cc2)c1	127 to 130
OCC1OC(n2cnc3c(N4CCCC4)nc(Cl)nc32)C(O)C1O (stereo unspecified)	229
CC(C)(C)C(=O)c1occc1C(=O)O	85 to 89
COCc1cnc2c(NC(=O)c3c(Cl)cccc3Cl)cccc2c1OCc1cccnc1	174 to 176
CC(C)(O)Cn1cnc2c(N)nc3cc(CCS(C)(=O)=O)ccc3c21	269 to 271
O=C1c2c(Cl)cccc2-n2cnc(-c3noc(C4CC4)n3)c2[C@@H]2CCCN12	236 to 237
CC(=O)OC1CSC(Oc2ccnc(Br)c2)C(OC(C)=O)C1OC(C)=O (stereo unspecified)	162
N#Cc1sc2c(Cl)cccc2c1Cl	124 to 128
COc1c(Cc2c[nH]c3cccc(C(=O)O)c23)[nH]c(=O)c(CC(C)C)[n+]1[O-]	160 to 164
Nc1nc(-c2ccc(CCN3CCN(c4cccc5cc(Cl)ccc45)CC3)cc2)cs1	210 to 215
COc1ccc(NC(=O)c2ccc(OC)c3oc4ccc(NC(C)=O)cc4c23)cc1	285
CCNC(=O)c1sc(Oc2ccc3c(c2)OCO3)c2c1CCc1cnn(C)c1-2	138 to 139

The next lines start with the values.

melting point [°C]	SMILES
120 to 121	CCOC(=O)C1=Cc2cc(Br)ccc2NCC1
223 to 225	Cc1nc(-n2ccc(OCc3ccccc3)cc2=O)sc1C(=O)NCc1ccc(F)cc1
209 to 212	O=[N+]([O-])c1cn2c(n1)O[C@@H](COc1ccc(N3CCC(CCc4ccc(OC(F)(F)F)cc4)CC3)cc1)C2
246 to 247	O=C(Cc1c(-c2ccccc2)c2cc(O)c(Cl)cc2oc1=O)Nc1ccc(Cl)cc1C(F)(F)F
89 to 91	O=C1OC(COc2ccccc2)CN1CCO (stereo unspecified)
93	Cc1ccccc1-c1cn2ccc3ccccc3c2n1
131 to 132	CCOc1cc(OCCCc2cn(-c3ccc(C(F)(F)F)cc3)nc2OCC)ccc1CCC(=O)O
79 to 80	CC(C)(C)C(O)c1ccc(Oc2ccccc2)cc1 (stereo unspecified)
113 to 115	O=C(c1cncc(Br)c1)N1CCC(c2ccccc2)=N1
123 to 125	O=C(NCCC1CC1)c1ccnc(N2CCN(Cc3ccc(F)cc3)C2=O)c1
108 to 112	CC1OC(=O)N(C(=O)NCCCN2CCC(c3ccc(F)cc3)CC2)C1c1ccc(F)c(F)c1 (stereo unspecified)
102 to 103	CC(=O)c1cc(Br)c(OCCCN2CCC(c3noc4cc(F)ccc34)CC2)c(Br)c1
141 to 143	CCCC(=O)c1ccc(NC(C)=O)cc1
205	COc1ccc(CCN2CCC(C(=O)O)(S(=O)(=O)c3ccc(OC)cc3)CC2)cc1
63 to 65	CCOC(=O)C(C(=O)C(F)(F)F)=C(Cc1ccccc1)C(N)C(=O)OCC (stereo unspecified)
85 to 86.5	COC(=O)C=CC(=S)c1ccc(-c2ccccc2)cc1
185 to 186	Nc1c2c(nc3ccccc13)C1CCC2C1 (stereo unspecified)
111	CCC(=O)C1c2cccc(O)c2C(=O)c2c(OC(=O)C(C)C)cccc21 (stereo unspecified)
193 to 194	Nc1c(NC(=O)CCl)ccc2c1C(=O)c1ccccc1C2=O

melting point [°C]	SMILES
333	Cn1c(=O)c(=O)[nH]c2c3ccccc3ccc21
166 to 168	C[C@@H]1[C@H]2C(=O)N(Cc3ccccc3)C(=O)[C@H]2[C@@H](c2ccc(Br)cc2)N1C (racemic)
106	CC(C)C(c1ccc(NC(=O)CC(=O)c2ccccc2)c([N+](=O)[O-])c1)n1ccnc1 (stereo unspecified)
141 to 143	CC1(C)CC(=O)c2c(-c3ccccc3)sc(-c3nccs3)c2C1
194 to 195	Cc1cccc2c1N(CCN(C(C)C)C(C)C)C(=O)/C2=N/NC(N)=O
53.5	CCCCN(CCCC)CCCOc1ccc(S(=O)(=O)c2c(-c3ccccc3)noc2C(C)C)cc1
190	N=C(CC1=CCC=CC1)N1C[C@@H]2C(=O)CCC(c3ccccc3)(c3ccccc3)[C@@H]2C1 (racemic)
174 to 178	CC(C)(C)c1cc(C(C)(C)C)c2oc(N)c(-c3ccccc3)c2c1
232	COC(=O)Nc1nn2cccc2c(=O)[nH]1
105 to 107	O=C(O)CCC(=O)c1cccc(Cl)c1
145 to 146	Cc1cc(-n2ccc(CCc3ccccc3)cc2=O)sc1C(=O)NCc1ccccc1
270	O=C(NCCc1c2n(c3ccc(O)nc13)CCCC2)c1ccco1
190 to 193	Cn1c(/C=C/C2CC(O)CC(=O)O2)c(-c2ccccc2)c2ccccc2c1=O (stereo unspecified)
163	Cc1cc([N+](=O)[O-])ccc1NCCCn1ccnc1
92 to 95	O=C(CCc1ccccc1)N1C(=O)OC[C@@H]1Cc1ccccc1
72 to 76	CCOC(=O)c1noc(C(Cc2ccccc2)NC(=O)OC(C)(C)C)n1 (stereo unspecified)
227 to 228	O=C(O)Cn1c(-c2ccccc2Cl)nc2cccnc21
72	COc1ccc(S(=O)(=O)c2ncccn2)cc1
